# Patent US4314061A, “Certain 3,6-bis-(heteroaminoalkoxy) acridines” (priority 1980, dated 1982)
# What was measured:
# [1] = test system: Rauscher Virus-Induced Leukemia; experiment: Restoration of antibody formation in mice with Rauscher virus-induced leukemia; assay type: in vivo, Balb/c mice; settings: 100 mg/kg IP
# [2] = test system: Rauscher Virus-Induced Leukemia; experiment: Inhibition of splenomegaly in mice with Rauscher virus-induced leukemia; assay type: in vivo, Balb/c mice
# Columbia SK virus = experiment: Protection of mice against lethal Columbia SK virus infection by oral pre-treatment; assay type: in vivo, random-bred Swiss male mice; settings: 400 mg/kg oral
# Method: At 24, 48, 72 and 96 hours after drug treatment, separate groups of mice were injected SC with an LD95 dose of the interferon sensitive virus, Columbia SK. […] Typically, protection from lethal infection with Columbia SK virus is associated with induction of interferon.
# Lewis lung carcinoma [3] = experiment: Surgical-adjuvant antitumor activity against Lewis lung carcinoma implanted subcutaneously in footpads; assay type: in vivo, BDF1 mice; settings: for Average % of tumor weight inhibition / Average tumor weight: Day +11; for No. Survivors/No. Treated: at +90 days; for % Increased life-span: + significant (≥25%)
# Method: BDF1 mice were inoculated subcutaneously in the right hind footpad with 5×10^5 viable Lewis Lung carcinoma cells, on day zero. […] A control group of mice received a saline placebo instead of drug, and another group of tumor bearing mice received the positive control drug cyclophosphamide, at 100 mg/kg, administered by intraperitoneal injection. On the 11th day after tumor implantation, the mice were anesthesized with Nembutal, and the tumor bearing feet surgically amputated above the ankle joint. The surgical incision was swabbed with alcohol and sealed with stainless steel wound clips. The tumor bearing feet were individually weighed and the average weight of a normal foot (determined by weighing amputated feet from non-tumor bearing mice of the same age, sex and body weight) was subtracted to obtain the weight of tumor tissue in the amputated foot. Mice were then observed for deaths until the 90th day after tumor implantation. […]
# ^1 BDF1 male mice inoculated subcutaneously in footpad with 5
# × 10^5 Lewis lung tumor cells on day zero;
# 3,6bis(2-diethylaminoethoxy)acridine trihydrochloride administered orally
# and Cyclophosphamide intraperitoneally, on days 1, 7, and 13 following
# ^2 Average tumor weight determined after surgical amputation of tumor
# bearing foot on day 11 following tumor implantation.
# Lewis lung carcinoma [4] = experiment: Antitumor activity against intravenously inoculated Lewis lung carcinoma in mice; assay type: in vivo, BDF1 mice; settings: Day +19
# Method: Lewis lung carcinoma cells, 5×10^5 viable cells, were injected intravenously into BDF1 mice. The drug was prepared in normal saline and administered once daily, by the oral route, at doses ranging from 38 mg./kg to 400 mg/kg on days 1, 7, and 13 following tumor cell inoculation. A control group of mice received a saline placebo, instead of drug, by the oral route on the same days of treatment. All mice were sacrificed on day 19 following tumor inoculation, their lungs removed and individually weighed. Additionally, a group of 10 normal, non-tumor bearing BDF1 mice, of the same sex, age, and body weight as the tumor bearing mice, were sacrificed and their lungs removed and weighed to determine the average normal lung weight. The average normal lung weight was subtracted from the weight of lungs from the tumored mice to determine the weight of tumorous tissue present in the lungs of the tumor bearing mice. A postive drug effect is indicated by a ≥58% reduction in the average lung tumor weight of the drug treated mice, relative to the average lung tumor weight of the saline placebo treated mice.
# ^1 BDF1 male mice inoculated intravenously with 5 ×
# 10^5 Lewis lung tumor cells on day zero:
# 3,6bis(2-diethylaminoethoxy)acridine trihydrochloride administered on day
# 1,7, and 13 after tumor inoculation.
# ^2 Average lung tumor weight = average weight of lungs from tumor
# bearing mice, minus average weight of lungs from normal, nontumor bearing
# *Denotes significant (≥58%) inhibition of lung tumor weight.
# [5] = 300 mg/kg oral, * significant (≥58%)
# [6] = 400 mg/kg oral, * significant (≥58%)
smiles,measurement,setting,value
CCN(CC)CCOc1ccc2cc3ccc(OCCN(CC)CC)cc3nc2c1.Cl.Cl.Cl,Serum hemagglutinin titer/saline control titer,[1],512/32
same,% Reduction in splenomegaly,[2]; 50 mg/kg,68%
same,% Reduction in splenomegaly,[2]; 100 mg/kg,71%
same,Survivors/Total (14 Days),"Columbia SK virus; -24 hr relative to virus challenge, * p <.01",19/20
same,Survivors/Total (14 Days),"Columbia SK virus; -48 hr relative to virus challenge, * p <.01",10/20
same,Survivors/Total (14 Days),Columbia SK virus; -72 hr relative to virus challenge,1/20
same,Survivors/Total (14 Days),Columbia SK virus; -96 hr relative to virus challenge,1/20
same,Median survival time,Lewis lung carcinoma [3]; 50 mg/kg oral,> 90.0 days
same,Average % of tumor weight inhibition,Lewis lung carcinoma [3]; 50 mg/kg oral,38%
same,Average tumor weight,Lewis lung carcinoma [3]; 50 mg/kg oral,236 mg
same,No. Survivors/No. Treated,Lewis lung carcinoma [3]; 50 mg/kg oral,8/12
same,% Increased life-span,Lewis lung carcinoma [3]; 50 mg/kg oral,> 200%
same,Median survival time,Lewis lung carcinoma [3]; 100 mg/kg oral,> 90.0 days
same,Average % of tumor weight inhibition,Lewis lung carcinoma [3]; 100 mg/kg oral,46%
same,Average tumor weight,Lewis lung carcinoma [3]; 100 mg/kg oral,203 mg
same,No. Survivors/No. Treated,"Lewis lung carcinoma [3]; 100 mg/kg oral, ** p < .05",9/12
same,% Increased life-span,Lewis lung carcinoma [3]; 100 mg/kg oral,> 200%
same,Median survival time,Lewis lung carcinoma [3]; 200 mg/kg oral,> 90.0 days
same,Average tumor weight,Lewis lung carcinoma [3]; 200 mg/kg oral,38 mg
same,Average % of tumor weight inhibition,"Lewis lung carcinoma [3]; 200 mg/kg oral, * significant (≥58%)",90%
same,No. Survivors/No. Treated,"Lewis lung carcinoma [3]; 200 mg/kg oral, ** p < .05",12/12
same,% Increased life-span,Lewis lung carcinoma [3]; 200 mg/kg oral,> 200%
same,Median survival time,Lewis lung carcinoma [3]; 300 mg/kg oral,> 90.0 days
same,Average tumor weight,Lewis lung carcinoma [3]; 300 mg/kg oral,56 mg
same,Average % of tumor weight inhibition,Lewis lung carcinoma [3]; [5],85%
same,No. Survivors/No. Treated,"Lewis lung carcinoma [3]; 300 mg/kg oral, ** p < .05",10/12
same,% Increased life-span,Lewis lung carcinoma [3]; 300 mg/kg oral,> 200%
same,Median survival time,Lewis lung carcinoma [3]; 400 mg/kg oral,> 90.0 days
same,Average tumor weight,Lewis lung carcinoma [3]; 400 mg/kg oral,17 mg
same,Average % of tumor weight inhibition,Lewis lung carcinoma [3]; [6],96%
same,No. Survivors/No. Treated,"Lewis lung carcinoma [3]; 400 mg/kg oral, ** p < .05",10/12
same,% Increased life-span,Lewis lung carcinoma [3]; 400 mg/kg oral,> 200%
same,Average % tumor inhibition,Lewis lung carcinoma [4]; 38 mg/kg oral,33%
same,Average lung tumor weight,Lewis lung carcinoma [4]; 38 mg/kg oral,99 mg
same,No. Survivors/No. Treated,Lewis lung carcinoma [4]; 38 mg/kg oral,10/12
same,Average % tumor inhibition,Lewis lung carcinoma [4]; 75 mg/kg oral,5%
same,Average lung tumor weight,Lewis lung carcinoma [4]; 75 mg/kg oral,139 mg
same,No. Survivors/No. Treated,Lewis lung carcinoma [4]; 75 mg/kg oral,12/12
same,Average % tumor inhibition,Lewis lung carcinoma [4]; 150 mg/kg oral,51%
same,Average lung tumor weight,Lewis lung carcinoma [4]; 150 mg/kg oral,72 mg
same,No. Survivors/No. Treated,Lewis lung carcinoma [4]; 150 mg/kg oral,12/12
same,Average lung tumor weight,Lewis lung carcinoma [4]; 300 mg/kg oral,40 mg
same,No. Survivors/No. Treated,Lewis lung carcinoma [4]; 300 mg/kg oral,12/12
same,Average % tumor inhibition,Lewis lung carcinoma [4]; [5],73%
same,Average lung tumor weight,Lewis lung carcinoma [4]; 400 mg/kg oral,12 mg
same,No. Survivors/No. Treated,Lewis lung carcinoma [4]; 400 mg/kg oral,10/12
same,Average % tumor inhibition,Lewis lung carcinoma [4]; [6],92%
